US8383581B2, “Short-chain peptides as parathyroid hormone (PTH) receptor agonist” (Cadila Healthcare Limited, priority 2009, dated 2013)
Where a SMILES comes first, the peptide text is derived from it. [ ]: non-standard residue; d: D form. ξ: configuration not given here. ξαMeBip(2'-Et,4'-OMe) = CCc1cc(OC)ccc1-c1ccc(CC(C)(N)C(=O)O)cc1; ξBip(2'-Et-4'-OMe) = CCc1cc(OC)ccc1-c1ccc(CC(N)C(=O)O)cc1; ξαMePhe(2,6-F2) = CC(N)(Cc1c(F)cccc1F)C(=O)O; ξαMe(hhPhe) = CC(N)(CCCc1ccccc1)C(=O)O; hhPhe = N[C@@H](CCCc1ccccc1)C(=O)O; hArg = N=C(N)NCCCC[C@H](N)C(=O)O; hCit = NC(=O)NCCCC[C@H](N)C(=O)O; Cit = NC(=O)NCCC[C@H](N)C(=O)O; ξαMeV = CC(C)C(C)(N)C(=O)O; ξαMeM = CSCCC(C)(N)C(=O)O; Nle = CCCC[C@H](N)C(=O)O; Orn = NCCC[C@H](N)C(=O)O; Ac5c = NC1(C(=O)O)CCCC1; Aib = CC(C)(N)C(=O)O

What was measured:
Type in all cases: in vitro ADME
[1] = Stability of peptides in human liver microsomes; details: human, microsomes; for % degradation of peptides in 24 h when incubated with liver microsomes: 2 μM, pH 7.8
Procedure, shortened: (§1)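 Peptides at 2 μM final incubated 0–24 h at 37 °C (50 mM triethanolamine-HCl, pH 7.8) in each matrix, matrix level set to degrade ~50% PTH(1-34) in 1 h; TFA-quenched, C18 HPLC at 206 nm with ESI-MS peak identification; percent degradation from peak areas at each time point.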

[2] = Stability of peptides in simulated gastric fluid (pH 1.5; HCl, NaCl and Pepsin); details: pH 1.5; for % degradation of peptides in 24 h when incubated with simulated gastric fluid: 2 μM
[3] = Stability of peptides in human plasma; details: human, plasma; for metabolised at 24 h, 2 μM: pH 7.8
Procedure, shortened: as §1

[4] = Stability of peptides in simulated intestinal fluid (pH 7.5); details: pH 7.5; for % degradation of peptides in 24 h when incubated with simulated intestinal fluid: 2 μM
Procedure, shortened: as §1

SMILES | half-life [1] [h] | % degradation of peptides in 24 h when incubated with liver microsomes [1] [%] | % degradation of peptides in 24 h when incubated with simulated gastric fluid [2] [%] | half-life ([2]; simulated gi fluid) [h] | half-life [3] [h] | metabolised at 24 h, 2 μM [3] [%] | half-life ([4]; simulated gi fluid) [h] | % degradation of peptides in 24 h when incubated with simulated intestinal fluid [4] [%] | half-life (t1/2) in liver microsomes [1] | half-life (t1/2) in simulated gastric fluid ([2]; simulated gi fluid) | half-life (t1/2) in simulated intestinal fluid ([4]; simulated gi fluid) | half-life (t1/2) in human plasma [3]
CCCC[C@H](NC(=O)C(C)(Cc1c(F)cccc1F)NC(=O)[C@H](CCC(N)=O)NC(=O)[C@@H](NC(=O)[C@H](CCC(=O)O)NC(=O)C(C)(C)NC(=O)[C@@H](NC(=O)C1(N)CCCC1)C(C)C)[C@@H](C)CC)C(=O)N[C@@H](Cc1c[nH]cn1)C(=O)N[C@@H](CCC(N)=O)C(=O)N[C@@H](CCCCNC(=N)N)C(=O)N[C@@H](C)C(=O)N[C@@H](CCCNC(=N)N)C(=O)NC(Cc1ccc(-c2ccc(OC)cc2CC)cc1)C(=O)N[C@@H](CCCc1ccccc1)C(N)=O (some centres unmarked) [Seq. ID. 811] (H-[Ac5c]V[Aib]EIQ[ξαMePhe(2,6-F2)][Nle]HQ[hArg]AR[ξBip(2'-Et-4'-OMe)][hhPhe]-NH2) | 2 | 81 | 52 | 4 | > 24 | 0 | > 24 | 00 | – | – | – | –
CCCC[C@H](NC(=O)C(C)(Cc1c(F)cccc1F)NC(=O)[C@H](CCC(N)=O)NC(=O)[C@@H](NC(=O)[C@H](CCC(=O)O)NC(=O)C(C)(C)NC(=O)[C@@H](NC(=O)C1(N)CCCC1)C(C)C)[C@@H](C)CC)C(=O)N[C@@H](Cc1c[nH]cn1)C(=O)N[C@@H](CCC(N)=O)C(=O)N[C@@H](CCCN)C(=O)N[C@@H](C)C(=O)N[C@@H](CCCNC(N)=O)C(=O)NC(Cc1ccc(-c2ccc(OC)cc2CC)cc1)C(=O)N[C@@H](CCCc1ccccc1)C(N)=O (some centres unmarked) [Seq. ID. 829] (H-[Ac5c]V[Aib]EIQ[ξαMePhe(2,6-F2)][Nle]HQ[Orn]A[Cit][ξBip(2'-Et-4'-OMe)][hhPhe]-NH2) | 2 | 84 | 43 | 4 | > 23 | 1 | > 22 | 05 | – | – | – | –
CCCC[C@H](NC(=O)C(C)(Cc1c(F)cccc1F)NC(=O)[C@H](CCC(N)=O)NC(=O)[C@@H](NC(=O)[C@H](CCC(=O)O)NC(=O)C(C)(C)NC(=O)[C@@H](NC(=O)C(C)(C)N)C(C)C)[C@@H](C)CC)C(=O)N[C@@H](Cc1c[nH]cn1)C(=O)N[C@@H](CCC(N)=O)C(=O)N[C@@H](CCCN)C(=O)NC(C)(C)C(=O)NC(C)(Cc1c(F)cccc1F)C(=O)NC(Cc1ccc(-c2ccc(OC)cc2CC)cc1)C(=O)N[C@@H](CCCc1ccccc1)C(N)=O (some centres unmarked) [Seq. ID. 840] (H-[Aib]V[Aib]EIQ[ξαMePhe(2,6-F2)][Nle]HQ[Orn][Aib][ξαMePhe(2,6-F2)][ξBip(2'-Et-4'-OMe)][hhPhe]-NH2) | – | 33 | 00 | > 24 | > 24 | 0 | > 24 | 00 | (5) h | – | – | –
CCCC[C@H](NC(=O)C(C)(Cc1c(F)cccc1F)NC(=O)[C@H](CCC(N)=O)NC(=O)[C@@H](NC(=O)[C@H](CCC(=O)O)NC(=O)C(C)(C)NC(=O)[C@@H](NC(=O)C(C)(C)N)C(C)C)[C@@H](C)CC)C(=O)N[C@@H](Cc1c[nH]cn1)C(=O)N[C@@H](CCC(N)=O)C(=O)N[C@@H](CCCCNC(N)=O)C(=O)N[C@@H](C)C(=O)N[C@@H](CCCNC(N)=O)C(=O)NC(Cc1ccc(-c2ccc(OC)cc2CC)cc1)C(=O)N[C@@H](CCCc1ccccc1)C(N)=O (some centres unmarked) [Seq. ID. 860] (H-[Aib]V[Aib]EIQ[ξαMePhe(2,6-F2)][Nle]HQ[hCit]A[Cit][ξBip(2'-Et-4'-OMe)][hhPhe]-NH2) | 1 | 81 | 14 | – | 8 | 77 | – | 45 | – | (8) h | (6) h | –
CCCC[C@H](NC(=O)C(C)(Cc1c(F)cccc1F)NC(=O)[C@H](CCC(N)=O)NC(=O)[C@@H](NC(=O)[C@H](CCC(=O)O)NC(=O)C(C)(C)NC(=O)[C@@H](NC(=O)C(C)(C)N)C(C)C)[C@@H](C)CC)C(=O)N[C@@H](Cc1c[nH]cn1)C(=O)N[C@@H](CCC(N)=O)C(=O)NC(C)(Cc1c(F)cccc1F)C(=O)N[C@@H](C)C(=O)NC(C)(Cc1c(F)cccc1F)C(=O)NC(Cc1ccc(-c2ccc(OC)cc2CC)cc1)C(=O)N[C@@H](CCCc1ccccc1)C(N)=O (some centres unmarked) [Seq. ID. 880] (H-[Aib]V[Aib]EIQ[ξαMePhe(2,6-F2)][Nle]HQ[ξαMePhe(2,6-F2)]A[ξαMePhe(2,6-F2)][ξBip(2'-Et-4'-OMe)][hhPhe]-NH2) | – | 31 | 00 | > 24 | > 24 | 0 | > 24 | 00 | (5) h | – | – | –
CCc1cc(OC)ccc1-c1ccc(CC(C)(NC(=O)[C@H](CCCCN)NC(=O)[C@H](C)NC(=O)[C@H](CCCCNC(=N)N)NC(=O)[C@H](CCC(N)=O)NC(=O)[C@H](Cc2c[nH]cn2)NC(=O)[C@H](CCSC)NC(=O)[C@H](CC(C)C)NC(=O)[C@H](CCC(N)=O)NC(=O)[C@@H](NC(=O)[C@H](CCC(=O)O)NC(=O)C(C)(C)NC(=O)[C@@H](NC(=O)C(C)(C)N)C(C)C)[C@@H](C)CC)C(=O)N[C@@H](CCCc2ccccc2)C(N)=O)cc1 (some centres unmarked) [Seq. ID. 890] (H-[Aib]V[Aib]EIQLMHQ[hArg]AK[ξαMeBip(2'-Et,4'-OMe)][hhPhe]-NH2) | – | 32 | 00 | > 24 | > 24 | 0 | > 24 | 00 | (5) h | – | – | –
CCCC[C@H](NC(=O)[C@H](CC(C)C)NC(=O)[C@H](CCC(N)=O)NC(=O)[C@@H](NC(=O)[C@H](CCC(=O)O)NC(=O)C(C)(C)NC(=O)[C@@H](NC(=O)C1(NC(=O)C(C)(N)C(C)C)CCCC1)C(C)C)[C@@H](C)CC)C(=O)N[C@@H](Cc1c[nH]cn1)C(=O)N[C@@H](CCC(N)=O)C(=O)N[C@@H](CCCCNC(=N)N)C(=O)N[C@@H](C)C(=O)N[C@@H](CCCCN)C(=O)NC(Cc1ccc(-c2ccc(OC)cc2CC)cc1)C(=O)NC(C)(CCCc1ccccc1)C(N)=O (some centres unmarked) [Seq. ID. 895] (H-[ξαMeV][Ac5c]V[Aib]EIQL[Nle]HQ[hArg]AK[ξBip(2'-Et-4'-OMe)][ξαMe(hhPhe)]-NH2) | – | 33 | 00 | > 24 | > 24 | 0 | > 24 | 00 | (5) h | – | – | –
CCc1cc(OC)ccc1-c1ccc(CC(C)(NC(=O)[C@H](CCCCNC(=N)N)NC(=O)[C@H](C)NC(=O)[C@H](CCCCNC(=N)N)NC(=O)[C@H](CCC(N)=O)NC(=O)[C@H](Cc2c[nH]cn2)NC(=O)[C@H](CCSC)NC(=O)[C@H](CC(C)C)NC(=O)[C@H](CCC(N)=O)NC(=O)[C@@H](NC(=O)[C@H](CCC(=O)O)NC(=O)C(C)(C)NC(=O)[C@@H](NC(=O)C(C)(C)N)C(C)C)[C@@H](C)CC)C(=O)N[C@@H](CCCc2ccccc2)C(N)=O)cc1 (some centres unmarked) [Seq. ID. 898] (H-[Aib]V[Aib]EIQLMHQ[hArg]A[hArg][ξαMeBip(2'-Et,4'-OMe)][hhPhe]-NH2) | – | 26 | 00 | > 24 | > 24 | 0 | > 24 | 00 | (5) h | – | – | –
CCc1cc(OC)ccc1-c1ccc(CC(NC(=O)[C@H](CCCCNC(=N)N)NC(=O)[C@H](C)NC(=O)[C@H](CCCCNC(=N)N)NC(=O)[C@H](CCC(N)=O)NC(=O)[C@H](Cc2c[nH]cn2)NC(=O)[C@H](CCSC)NC(=O)[C@H](CC(C)C)NC(=O)[C@H](CCC(N)=O)NC(=O)[C@@H](NC(=O)[C@H](CCC(=O)O)NC(=O)C(C)(C)NC(=O)[C@@H](NC(=O)C2(NC(=O)C(C)(N)C(C)C)CCCC2)C(C)C)[C@@H](C)CC)C(=O)NC(C)(CCCc2ccccc2)C(N)=O)cc1 (some centres unmarked) [Seq. ID. 906] (H-[ξαMeV][Ac5c]V[Aib]EIQLMHQ[hArg]A[hArg][ξBip(2'-Et-4'-OMe)][ξαMe(hhPhe)]-NH2) | 0.5 | 100 | 100 | 0.5 | – | 78 | 0.5 | 100 | – | – | – | (9) h
CCc1cc(OC)ccc1-c1ccc(CC(C)(NC(=O)[C@H](CCCCNC(=N)N)NC(=O)[C@H](C)NC(=O)[C@H](CCCCNC(=N)N)NC(=O)[C@H](CCC(N)=O)NC(=O)[C@H](Cc2c[nH]cn2)NC(=O)C(C)(CCSC)NC(=O)[C@H](CC(C)C)NC(=O)[C@H](CCC(N)=O)NC(=O)[C@@H](NC(=O)[C@H](CCC(=O)O)NC(=O)C(C)(C)NC(=O)[C@@H](NC(=O)C(C)(C)N)C(C)C)[C@@H](C)CC)C(=O)N[C@@H](CCCc2ccccc2)C(N)=O)cc1 (some centres unmarked) [Seq. ID. 910] (H-[Aib]V[Aib]EIQL[ξαMeM]HQ[hArg]A[hArg][ξαMeBip(2'-Et,4'-OMe)][hhPhe]-NH2) | 0.5 | 100 | 100 | 0.5 | – | 77 | 0.5 | 100 | – | – | – | (9) h
